Measurements reported in PMC12858405, “Ideal efficacy photoswitching for chromocontrol of TRPC4/5 channel functions in live tissues” (Nature Chemical Biology, 2026).

Legend:
[1] = molecular target: T1, TRPC5-V579I-SYFP2 (Homo sapiens, UniProt Q9UL62, V579I); assay: Fura-2 [Ca2+]i recordings, HEK 293 transiently expressing TRPC5-V579I-SYFP2; assay type: cell-based; conditions: 10-1000 nM; compound plate illuminated at 380 nm; EA 100 nM as maximum
T1 construct: expressed in transfected cells; host or cells: HEK 293 (ATCC CRL 1573), transiently transfected (jetPRIME)
T1 sequence (Q9UL62 1-973 V579I): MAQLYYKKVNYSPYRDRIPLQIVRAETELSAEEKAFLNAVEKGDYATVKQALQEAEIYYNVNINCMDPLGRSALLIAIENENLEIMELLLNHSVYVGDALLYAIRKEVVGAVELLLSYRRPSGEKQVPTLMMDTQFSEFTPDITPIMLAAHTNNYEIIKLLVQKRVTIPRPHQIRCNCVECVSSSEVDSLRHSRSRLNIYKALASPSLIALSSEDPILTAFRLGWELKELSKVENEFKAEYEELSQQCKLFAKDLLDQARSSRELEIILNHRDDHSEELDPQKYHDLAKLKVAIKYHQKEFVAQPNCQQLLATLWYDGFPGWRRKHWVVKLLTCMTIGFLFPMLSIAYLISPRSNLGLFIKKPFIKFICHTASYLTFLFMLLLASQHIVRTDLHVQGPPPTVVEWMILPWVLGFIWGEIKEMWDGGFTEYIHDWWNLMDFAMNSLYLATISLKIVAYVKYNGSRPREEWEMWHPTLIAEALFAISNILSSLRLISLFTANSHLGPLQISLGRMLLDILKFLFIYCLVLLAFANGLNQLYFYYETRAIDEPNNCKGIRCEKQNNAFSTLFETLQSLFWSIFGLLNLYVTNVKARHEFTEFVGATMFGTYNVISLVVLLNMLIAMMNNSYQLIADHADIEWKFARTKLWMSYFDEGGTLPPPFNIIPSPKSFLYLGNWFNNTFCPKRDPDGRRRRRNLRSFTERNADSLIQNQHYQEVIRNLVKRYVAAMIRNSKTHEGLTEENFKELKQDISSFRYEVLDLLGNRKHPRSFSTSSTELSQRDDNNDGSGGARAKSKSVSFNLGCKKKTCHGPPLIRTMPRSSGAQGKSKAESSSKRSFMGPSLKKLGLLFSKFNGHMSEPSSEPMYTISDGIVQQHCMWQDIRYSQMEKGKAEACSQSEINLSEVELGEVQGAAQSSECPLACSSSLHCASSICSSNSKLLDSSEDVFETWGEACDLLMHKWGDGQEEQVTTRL
Text: (§1) Müller, Niemeyer, et al., Schaefer & Thorn-Seshold 2025: Ideal Efficacy Photoswitching of TRPC4/5 in Tissue […]
(§2) 1.4.3 Note on TRPC4 / TRPC5 Sequence Alignment
(§3) The key contact residues of interest in the ligand binding site are highly conserved between TRPC4 and TRPC5. The relevant sequences in the site are: […]
(§4) 1.4.4 Differences and selectivity between TRPC5 and TRPC4?
(§5) AM237 activates TRPC5 but inhibits EA mediated activation of TRPC4; Pico145 inhibits both TRPC4 and TRPC5. Thus, somewhat naively, it could be argued that it is the para substituent here which affects both the efficacy mode and the selectivity for TRPC4 and/or TRPC5.
(§6) Intriguingly, Z-AzPico activates TRPC4 and TRPC5 with low nanomolar potency whereas Z-AzHC only activates TRPC5 but not TRPC4. Therefore, the meta substituent is now responsible for the selectivity in this case. The cryo-EM structures of Pico145 and HC-070 in complex with TRPC5 indicated the same binding site but the southern phenyl ring bearing the OCF3/Cl group is flipped and pointing in opposite directions.
(§7) Z isomers, i.e. Z-buried vs. E-projected. Additionally, both E-AzPico and E-AzHC inhibit EA […]
(§8) Intracellular calcium ([Ca2+]i) was measured using the ratiometric Ca2+ dye Fura-2. […]

[2] = molecular target: T2, TRPC4β-I575V-SYFP2 (Homo sapiens, UniProt Q9UBN4, I575V); assay: Fura-2 [Ca2+]i recordings, HEK 293 transiently expressing TRPC4β-I575V-SYFP2; assay type: cell-based; conditions: AzHC 10-1000 nM, AM237 100 nM
T2 construct: expressed in transfected cells; host or cells: HEK 293 (ATCC CRL 1573), transiently transfected (jetPRIME)
Text: as §1, §2, §3, §4, §5, §6, §7, §8

T2 sequence (Q9UBN4 other isoform, or with tags, fused parts or gaps I575V): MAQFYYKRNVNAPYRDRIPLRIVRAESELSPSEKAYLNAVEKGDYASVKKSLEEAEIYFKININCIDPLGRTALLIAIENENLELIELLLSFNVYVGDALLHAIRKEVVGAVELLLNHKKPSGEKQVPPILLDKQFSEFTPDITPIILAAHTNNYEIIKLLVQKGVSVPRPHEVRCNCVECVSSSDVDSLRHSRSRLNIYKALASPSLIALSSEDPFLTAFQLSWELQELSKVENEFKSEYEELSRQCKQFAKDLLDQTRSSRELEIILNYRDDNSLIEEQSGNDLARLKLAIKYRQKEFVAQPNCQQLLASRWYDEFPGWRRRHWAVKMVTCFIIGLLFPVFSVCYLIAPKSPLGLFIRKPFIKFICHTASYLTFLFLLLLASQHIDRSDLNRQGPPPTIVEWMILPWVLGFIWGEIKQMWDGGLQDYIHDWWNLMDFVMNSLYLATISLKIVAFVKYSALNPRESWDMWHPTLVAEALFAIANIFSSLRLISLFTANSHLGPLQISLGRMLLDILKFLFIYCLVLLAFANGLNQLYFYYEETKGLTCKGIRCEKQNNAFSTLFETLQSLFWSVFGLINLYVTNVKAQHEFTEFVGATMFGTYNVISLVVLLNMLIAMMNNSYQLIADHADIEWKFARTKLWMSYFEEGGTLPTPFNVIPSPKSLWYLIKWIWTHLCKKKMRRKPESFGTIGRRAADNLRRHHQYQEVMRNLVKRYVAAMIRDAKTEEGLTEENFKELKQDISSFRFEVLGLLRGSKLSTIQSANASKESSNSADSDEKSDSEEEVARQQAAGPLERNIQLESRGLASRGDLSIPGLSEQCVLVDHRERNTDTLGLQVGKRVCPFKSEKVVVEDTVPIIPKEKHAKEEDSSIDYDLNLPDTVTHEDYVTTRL

Row | SMILES | Effect on [Ca2+]i, TRPC5V579I [1] | Effect on [Ca2+]i, TRPC4I575V [2]
1 | Cn1c(=O)n(CCCO)c(=O)c2c1nc(Oc1ccc(Cl)c(OC(F)(F)F)c1)n2Cc1ccc(Cl)cc1 [AM237, reference compound] | partial agonists | do not activate
2 | Cn1c(=O)n(CCCO)c(=O)c2c1nc(Oc1ccc(/N=N\c3ccccc3)c(Cl)c1)n2Cc1ccc(Cl)cc1 [Z*-AzHC] | partial agonists | do not activate
